What all share (format): cell-based
In assay [1] the target is T1, STING (Homo sapiens, UniProt Q86WV6). The assay can be described thus: Western Blot analysis for STING degradation in H596 cells. The conditions noted are these: 24h; for STING degradation (Western Blot, Figure 1): H596 cells, 0.22 µM, 0.67 µM, 2 µM and 6 µM. As to the method: For cell lysing for Western Blot analysis cell culture plates were brought to ice, supernatant was removed by aspiration and cells washed 2x in ice-cold DPBS. Cells were lysed in 65 µL of RIPA buffer supplemented with cOmplete ULTRA Tablets protease inhibitor cocktail, PIERCE Phosphatase inhibitor mini tablet, Benzonase and 10mM NaF for 20 min on ice. Lysates were collected, cleared by centrifugation (13000xg for 10 min at 4°C). Samples were either analysed directly or stored at -80°C until analysis.
For Western Blotting, total protein concentration in each lysate was determined using PIERCE Gold BCA Assay kit according to manufactures protocol. 6 µg of total protein was mixed with 2x Laemmli buffer containing DTT, boiled for 5 min at 95°C, cooled on ice and loaded into each well of a 4-20% Criterion TGX gel. Proteins were separated by electrophoresis, by running for 1h at 150V. After separation proteins were blotted onto a PVDF membrane by semi-dry transfer using Trans-Blot turbo system at pre-defined BioRad MIDI protocol; 25V, 1A (fixed) for 30 min. Membranes were blocked for 1h in 5% skim milk in TBS-T20 on a rocker at room temperature followed by washing and exposure to primary antibodies against human STING 1:1000 (Cell Signalling, #13647) or loading controls Vinculin 1:1000 (Cell Signalling, #13901) or beta-Actin 1:10000 (Sigma, A5441) all diluted in 5% BSA in TBS-T20. Membranes were probed over night at 4°C on a rocker. Membranes were washed 3x in TBS-T20 followed by exposure to secondary HRP-conjugated anti-rabbit antibody or HRP-conjugated anti-mouse antibody diluted 1:10000 in 5% skim milk in TBS-T20 as appropriate. Membranes were incubated for 1h at room temperature on a rocker, then washed 3x in TBS-T20.
For generating DC50 values, the intensity of individual bands was measured using imaged and expression levels were calculated as a ratio of STING intensities vs. Reference protein intensities and normalized to DMSO control. The normalized ratios were plotted on a XY curve in GraphPad Prism where DC50 was estimated using a 4-parameter non-linear regression fitting curve.
(§1) To assess STING degradation in H596 cells (ATCC, HTB-178) cells were seeded at a density of 100.000 cells/well in 24-well Nunclon Delta surface treated culture plate in RPMI-1640 growth medium (supplemented with 10% FBS, 1% Pen-strep). Cells were incubated over-night at 37°C 5% CO2 to allow adhesion. Next day growth medium was renewed and a 5x concentration of test compounds (2.5% DMSO) diluted in growth medium were added to the appropriate well. Final DMSO concentration was 0.5%. Cell culture plates were returned to the incubator for additional 24h. Final test compound concentrations were 0.22 µM, 0.67 µM, 2 µM and 6 µM.
(§2) For cell lysis, western blotting and data analysis, the methods described above for HFF-1 cells were applied.
For orientation: A western blot detects proteins with antibodies after separation by electrophoresis.

Assay [2] deals with T1, STING. In words: Western Blot analysis for STING degradation in H1650 cells. The conditions noted are these: 0.22 µM, 0.67 µM, 2 µM and 6 µM. The protocol:
as §1, §2
Similar protocols were carried out to assess STING degradation in H1650 cells (Figure 1, top panel) and HaCat cells (Figure 1, bottom panel) using Example compounds 14, 16 and 24, except that the seeding density was 150,000 cells/well and 250,000 cells/well for H1650 cells and HaCat cells, respectively.

In assay [3] the target is T1, STING. The assay can be described thus: Western Blot analysis of STING phosphorylation in human fibroblast cells (STING agonism). The arrangement: host or cells: HFF-1 human foreskin fibroblasts. The conditions noted are these: 7.2µM-3.6nM; 24h. The protocol:
Human fibroblast were treated with a titration of E22, E9, E14 and E16 (7.2µM-3.6nM) for 24h prior to cell lysis and subsequently total STING, pSTING and Vinculin were assessed by western blot using rabbit anti-STING (1:1000), anti-pSTING (1:1000), anti-Vinculin (1:1000) and 2nd anti-rabbit-HRP (1:10.000) or anti-mouse-HRP (1:7500). Proteins were visualized using ImageQuant800. Control cells included untreated cells and cells treated with 300nM diABZI C3.

For assay [4], the target named is T2, STING (Mus musculus, UniProt Q3TBT3).
T2 sequence (Q3TBT3 1-378): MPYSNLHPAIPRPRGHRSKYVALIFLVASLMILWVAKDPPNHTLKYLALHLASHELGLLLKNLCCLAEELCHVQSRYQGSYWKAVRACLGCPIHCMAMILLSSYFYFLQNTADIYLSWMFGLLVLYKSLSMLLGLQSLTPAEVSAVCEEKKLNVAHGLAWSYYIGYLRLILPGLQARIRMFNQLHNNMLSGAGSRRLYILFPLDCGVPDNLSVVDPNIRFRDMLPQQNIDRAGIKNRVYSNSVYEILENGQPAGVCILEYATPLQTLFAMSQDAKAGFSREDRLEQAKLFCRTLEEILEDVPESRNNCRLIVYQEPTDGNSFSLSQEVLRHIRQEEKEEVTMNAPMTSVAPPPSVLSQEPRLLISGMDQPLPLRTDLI
In words: Western Blot analysis for STING degradation in mouse RAW264.7 cells. The arrangement: endogenous in cells; host or cells: RAW264.7 mouse cells. The conditions noted are these: 19.5nM to 10 µM, 24 hours. The protocol:
To assess STING degradation in RAW264.7 cells, cells were seeded at a density of 60.000 cells/well in 24-well Nunclon Delta surface treated culture plate in RPMI-1640 growth medium (supplemented with 10% FBS, 1% Pen-strep). Cells were incubated over-night at 37°C 5% CO2 to allow adhesion. Next day growth medium was renewed and a 5x concentration of test compounds (2.5% DMSO) diluted in growth medium were added to the appropriate well. Final DMSO concentration was 0.5%. Cells were treated with a titration of test compound from 19.5nM to 10 µM 24 hours prior to cells lysis and subsequently analyzed by WB using anti-STING (1:1000) and anti-VCL (1:1000) antibodies. Controls included UT (DMSO) and 1.8µM diABZI treated cells.
as §2

In assay [5] the target is T2, STING. The assay can be described thus: IFN-β secretion from mouse RAW264.7 cells treated with diABZI. On the set-up: endogenous in cells; host or cells: RAW264.7 mouse cells. The note with it: 1.8 µM diABZI c3 and 0.05 µM Example compound. The protocol: As expected, RAW264.7 cells treated with 1.8 µM diABZI c3 increased IFN-β secretion, resulting in a media concentration of around 1000 pg/mL. In contrast, cells treated with 1.8 µM diABZI c3 and 0.05 µM Example compounds 14, 16 or 24 reduced this expression to approximately 500 pg/mL.

The results in this text go back to patent EP4663632A1, “COMPOUNDS USEFUL FOR THE MODULATION OF THE ACTIVITY OF STING” (Sulis Therapeutics ApS, priority 2024, dated 2025).

“Also recorded” adds a separate entry of the source.

T1 sequence (Q86WV6 whole entry): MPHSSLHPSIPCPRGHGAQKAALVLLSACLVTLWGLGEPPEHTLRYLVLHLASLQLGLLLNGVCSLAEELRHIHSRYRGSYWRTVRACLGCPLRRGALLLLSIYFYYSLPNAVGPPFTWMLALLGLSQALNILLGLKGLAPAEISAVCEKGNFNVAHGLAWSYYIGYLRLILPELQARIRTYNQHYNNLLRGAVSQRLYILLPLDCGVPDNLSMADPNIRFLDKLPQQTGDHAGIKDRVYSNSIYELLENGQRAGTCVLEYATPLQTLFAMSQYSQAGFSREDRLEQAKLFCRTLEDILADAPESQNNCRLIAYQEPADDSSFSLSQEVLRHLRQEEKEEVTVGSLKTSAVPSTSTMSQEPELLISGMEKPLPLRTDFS

Take `CCn1nc(C)cc1C(=O)N=c1n(C)c2cc(C(N)=O)ccc2n1CCC(CCn1c(=NC(=O)c2cc(C)nn2CC)n(C)c2cc(C(N)=O)ccc21)OCC(=O)NCCOCCOCCOCCOCCC(=O)NCCOCCOCCOCCOCC(=O)N[C@H](C(=O)N1C[C@H](O)C[C@H]1C(=O)NCc1ccc(-c2scnc2C)cc1)C(C)(C)C` (stereo partly shown) [Example 14]: on STING [1] (reference protein beta-actin), the 50% degradation concentration (DC50) lay in the range of 1 to 5 µM. The “STING degradation (Western Blot, Figure 1)” value at STING [1] was “inducing visible degradation in H1650 and H596 at the higher concentrations tested”. The “STING degradation (Western Blot, Figure 1)” value on STING [2] is “inducing visible degradation in H1650 and H596 at the higher concentrations tested”. Further, at STING [3], the “STING phosphorylation (pSTING)” value was “no STING phosphorylation was observed” and the “total STING protein levels” value was “total STING protein levels were observed to decrease”. Besides, the “STING degradation (Western Blot, Figure 2)” value at STING [4] was “dose-dependent STING degradation”. Further, on STING [5], the IFN-β media concentration result is “approximately 500 pg/mL”.
On to `CCn1nc(C)cc1C(=O)N=c1n(C)c2cc(C(N)=O)ccc2n1CCC(CCn1c(=NC(=O)c2cc(C)nn2CC)n(C)c2cc(C(N)=O)ccc21)OCC(=O)NCCOCCOCCOCCOCCC(=O)NCCOCCOCCOCCOCCNc1cccc2c1C(=O)N(C1CCC(=O)NC1=O)C2=O` (stereo not shown) [Example 16], for which the “STING degradation (Western Blot, Figure 1)” value on STING [1] is “induced STING degradation in all cell lines tested at all concentrations tested; also recorded: showed a more potent effect of induction of STING degradation than Example compound 14”. The “STING degradation (Western Blot, Figure 1)” value on STING [2] is listed as “induced STING degradation in all cell lines tested at all concentrations tested”. Also, on STING [3], the “STING phosphorylation (pSTING)” value is recorded as “no STING phosphorylation was observed” and the “total STING protein levels” value is recorded as “total STING protein levels were observed to decrease”. Besides, the “STING degradation (Western Blot, Figure 2)” value on STING [4] was “dose-dependent STING degradation”. Moreover, on STING [5], the IFN-β media concentration entry is listed as “approximately 500 pg/mL”.

Usually DC50 stands for the concentration giving 50% degradation.
